Experimental data as given in US10265302B2, “Compound useful for the treatment of nonsense-mutation-mediated diseases and pharmaceutical composition comprising said compound” (UNIVERSITE DE LILLE, priority 2010, dated 2019).

Key:
[1] = tested on: PTC-containing dystrophin gene in DMD cells; assay: Dystrophin mRNA in DMD cells by RT-PCR; assay type: cell-based
Method: As regards the results of FIG. 11 a, DMD cells were incubated with increasing amounts of […] molecule or as a control with DMSO. RNAs were purified using RNazol reagent (MRC) and reverse transcribed using Superscript. II (Life technologies) and random hexamer. PCR using radiolabelled CTP was performed in order to amplify either dystrophin or GAPDH cDNA. Amplification products were loaded on 5% polyacrylamide gel. The gel was then dried and exposed on phosphoscreen in order to allow quantification of each amplification species by Personal Molecular Imager (Biorad).

[2] = after oral administration; cited from earlier work
CFTR in 6-CFSMEo- cells = assay: Iodide efflux in 6-CFSMEo- cells (SPQ fluorescence); assay type: cell-based; conditions: 6-CFSMEo- cells, 0.2, 1, 5 and 25 μM; forskolin 20 μM and IBMX 200 μM
Method: 6-CFSMEo− cells harbor a PTC in place of the glutamine 2 codon of the CFTR gene.
6-CFSMEo^− cells were seeded in 96-well plates and loaded overnight with 10 mM of the halide-sensitive fluorophore dye 6-methoxy-N-(3-sulfopropyl)-quinolinium (SPQ, Invitrogen). Cells were washed twice with iodide buffer (135 mM NaI, 2.4 mM K2HPO4, 0.6 mM KH2PO4, 1 mM MgSO4, 1 mM CaSO4, 10 mM dextrose and 10 mM Hepes, pH 7.3) and then incubated in iodide buffer for 30 min. After basal fluorescence was measured for 2 min, the iodide buffer was replaced with nitrate buffer (with 135 mM NaNO3 instead of NaI) containing 20 μM of forskolin and 200 μM of IBMX, and fluorescence was further measured for 10 minutes. The fluorescence intensities were measured every 15 seconds using the Tristar LB 941 microplate reader (Berthold) equipped with a 340 nm excitation filter and a 450 nm emission filter. […] G07 concentrations used were 0.2 μM, 1 μM, 5 μM and 25 μM, respectively. The increase in iodide efflux is shown as mean±SEM from at least four independent assays. It refers to the fluorescence at the reading time; F0 refers to the average fluorescence before addition of the above-mentioned nitrate buffer containing 20 μM of forskolin and 200 μM of IBMX.

[3] = tested on: P53 protein in Calu-6 cells; assay: P53 and P21 protein in Calu-6 cells by Western blot; assay type: cell-based
Method: Moreover, G07 enables the synthesis of a truncated P53 protein and a full-length P53 protein in Calu-6 cells. G07 is thus different from the molecules disclosed in WO 2008/101935. Regarding the molecules disclosed in the above-mentioned document, only the truncated protein has been detected. Protein extracts of Calu-6 cells incubated or not with G07 were loaded on an electrophoresis gel and then transferred on a nitrocellulose membrane in order to detect P53 protein after incubation with an anti-P53 antibody (an anti-P53 antibody is an antibody directed against the amino terminal part of P53 (Santa Cruz)).
When P53 protein is synthesized, P53 activates P21 expression. […] Thus, P53 protein synthesized thanks to G07 induces P21 expression as WT P53 protein does. Consequently, the Applicants have thus confirmed that G07 enables the synthesis of a functional full-length P53 protein.

[4] = tested on: MOR mRNA (MOR gene with NMD-activating nonsense-mutation); assay: In vivo NMD inhibition in KIM mice (MOR mRNA in brain); parameters: species or system mouse; conditions: 1Q and 2Q (0.2 and 2 mg/kg) injected in DMSO, 24 hours after injection
Method: In KIM mice, MOR gene harbors a NMD-activating nonsense-mutation. MOR gene is expressed in nervous central system. Solutions containing 0.2, 2 or 20 mg/kg of G07 (1Q, 2Q or 3Q respectively) dissolved in DMSO were injected into KIM mice. A control group consists of animals treated with pure DMSO. Animals were then euthanized 6, 24 or 32 hours after injection. RNAs extracted from brain homogenates were purified using TriReagent (MRC) and then analyzed as described with reference to FIG. 2. The difference between the experiments described with reference to FIG. 2 is that in the present case the mRNAs analyzed are the mRNA coding for MOR gene and the mRNA coding for the GAPDH gene used as a control to quantify measured MOR mRNA. The first 3 wells from the left correspond to a half dilution of a sample coming from a wild-type mouse brain. These 3 wells were used to check the PCR conditions which have to be quantitatively useful. […] The same technique as described with reference to FIG. 2 was used except the fact that RNA comes from KIM mice brains. Some of these KIM mice were injected with G07.

[5] = tested on: PTC-containing dystrophin gene in DMD cells; assay: Dystrophin protein in DMD cells by Western blot; assay type: cell-based
Method: As regards the results of FIG. 11 b, DMD cells were incubated with increasing amounts of […] molecule or as a control with DMSO. Protein extracts from these cells were loaded on 10% SDS-PAGE and transferred on nitrocellulose membrane. Nitrocellulose membrane was then exposed to primary antibody (either anti-dystrophin antibody raised against the amino-part of dystrophin protein (Santa-Cruz), or anti-tubulin antibody in order to specify the loading protein amount of each lane.

[6] = tested on: CFTR mRNA (PTC at position 1282) in IB3 cells; assay: NMD inhibition in IB3 cells (CFTR mRNA by RT-PCR); assay type: cell-based; conditions: increasing concentrations, 20 hours
Method: IB3 cells harbor a […] in position 1282 in place of the tryptophan codon of the CFTR gene.
IB3 cells (ATCC) were incubated in DMSO solutions containing pure DMSO (as a control) or increasing G07 concentrations, respectively, during 20 hours.
RNAs obtained after incubation were purified and a RT-PCR was performed to measure the amount of CFTR mRNA (containing a PTC) and the amount of GADPH mRNA (used as a control).

[7] = tested on: NMD (Firefly luciferase mRNA tethered with MS2-UPF fusion protein); assay: NMD inhibition using Firefly luciferase in HeLa cells; assay type: cell-based; conditions: 10 μmol/l of G07, versus control wells
Description: The presence of one of the following UPF proteins (UPF1, UPF2, UPF3 (also called UPF3a) or UPF3X (also called UPF3b)) on the 3′UTR part of an mRNA, activates NMD on this particular mRNA. When an UPF protein is located downstream from a normal stop codon, said normal stop codon is recognized as a PTC. Consequently, the mRNA comprising the UPF protein will be degraded through NMD.
HeLa cell-line expressing Firefly luciferase mRNA were used. Firefly luciferase mRNA harbors MS2 binding sites in the 3′UTR. The above-mentioned cells further contain a fusion protein which consists in said MS2 protein and one of the four UPF proteins. This fusion protein enables UPF positioning downstream from the normal stop codon (i.e. on the 3′UTR part of this mRNA). Accordingly, the normal stop codon is recognized as a PTC. Consequently, NMD is activated and degrades Firefly luciferase mRNA.
Luciferase activity in the above-mentioned cells is thus directly linked to NMD activity.
HeLa cells were cultured in DMEM (Gibco) supplemented with 10% FBS and containing 10 μmol/l of G07.

[8] = tested on: P53 mRNA (UGA PTC at codon 196) in Calu-6 cells; assay: P53 mRNA level in Calu-6 cells by RT-PCR; assay type: cell-based
Description: RNAs of said Calu-6 cells were reverse transcribed and amplified through PCR (RT-PCR) in the presence of a radioactive labeling nucleotide in order to measure P53 mRNA and GAPDH mRNA levels (GAPDH being used as a loading control). […] Amplified reverse transcribed mRNAs were loaded on an acrylamide gel and submitted to electrophoresis. Acrylamide gel was then dried on Whatman paper and applied on a phosphoscreen (Kodak). A Personal Molecular Imager (Bic-Rad) was used to quantify amplified radiolabelled species. Calu-6 cells were incubated with growing concentrations of G07 in DMSO during about twenty hours. This was carried out in order to confirm NMD inhibition activity of G07. After incubation, RNAs were purified by using TriReagent (MRC) and then reverse-transcribed into cDNA which can be PCR amplified in presence of a radiolabelled nucleotide.
Thus, an increasing quantity of P53 mRNA results from stabilization thereof. […] GAPDH (Glyceraldehyde 3-phosphate deshydrogenase) mRNA was amplified in order to normalize the measurement of P53 mRNA between two lanes.

NMD = conditions: cited from earlier work

Row | Compound | concentration of maximum efficacy, dystrophin mRNA [1] [µM] | dystrophin mRNA (RT-PCR) ([1]; increasing amounts) | tissue distribution [2] | iodide efflux (CFTR in 6-CFSMEo- cells) | P21 protein (functionality of P53) ([3]; 25 and 125 μM) | P53 protein synthesis (Western blot) ([3]; about 20 hours incubation) | MOR mRNA level in brain [4] | concentration of maximum efficacy, dystrophin protein [5] [µM] | dystrophin protein (Western-blot) ([5]; increasing amounts) | ratio amount of CFTR mRNA/amount of GAPDH mRNA [6] | luciferase activity (NMD inhibition) [7] | NMD inhibition / P53 mRNA stabilization ([8]; 25 μM) | quantity of P53 mRNA (normalised to GAPDH mRNA) ([8]; growing concentrations in DMSO, about twenty hours) | NMD inhibiting activity (NMD)
1 | CC(C)c1ccc2oc3nc(N)c(C(=O)O)cc3c(=O)c2c1 [G07, 2-amino-7-isopropyl-5-oxo-5H-chromeno[2,3-b]pyridine-3-carboxylic acid] | 5 | stabilization of dystrophin mRNA | preferably distributed in liver, kidneys and intestine | dose-response effect | presence of P21 | full-length and truncated P53 proteins are synthesized | stabilization of MOR mRNA | 5 | synthesis of dystrophin protein | increased stabilization of CTFR mRNA | higher than in control wells | inhibits NMD and enables a stabilization of P53 mRNA | increased quantity of P53 mRNA | –
2 | O=C(O)c1cccc(-c2noc(-c3ccccc3F)n2)c1 [PTC124, 3-[5-(2-fluorophenyl)-1,2,4-oxadiazol-3-yl]benzoïc acid] | – | – | – | – | – | – | – | – | – | – | – | – | – | no NMD inhibiting activity
